Consider three molecules from ChEMBL document CHEMBL3272271, “Folate antagonists. 13. 2,4-Diamino-6-](alpha,alpha,alpha-trifluoro-m-tolyl)thio]quinazoline and related 2,4-diamino-6-[(phenyl- and naphthyl)thio]quinazolines, a unique class of antimetabolites with extraordinary antimalarial and antibacterial effects” (J Med Chem, 1978).

Converted amounts (≈) assume the structure as drawn. The source made the active and inactive calls. A value given as a limit tells only on which side of the number the result lay.

Series [1] has as its system Staphylococcus aureus. Description: Antibacterial activity against drug-resistant Staphylococcus aureus S18713 by gradient plate test. Type of series: functional.
The test system of series [2] is Enterococcus faecalis. Description: Antibacterial activity against Streptococcus faecalis MGH-2 by gradient plate test. It is filed as functional.
The test system of series [3] is Escherichia coli. As to the kind of experiment: Antibacterial activity against Escherichia coli Vogel by gradient plate test. Type of series: functional.
The test system of series [4] is Staphylococcus aureus. Description: Antibacterial activity against Staphylococcus aureus UC-96 by gradient plate test. Type of series: functional.
The test system of series [5] is Plasmodium gallinaceum. Description: Antimalarial activity against sporozoite-induced Plasmodium gallinaceum infected in white leghorn chicken assessed as disease cure from parasite infection at 15 mg/kg, sc administered 72 hrs after infection. Type of series: functional, organism-based. Further details: dose 15 mg/kg.
Series [6] concerns Plasmodium berghei. As to the kind of experiment: Antimalarial activity against Plasmodium berghei infected in mouse assessed as increase in mean survival days of host at 10 mg/kg, sc administered 72 hrs after infection relative to control. It is filed as functional. Particulars: route subcutaneous.
In series [7] the test system is Shigella sonnei. As to the kind of experiment: Antibacterial activity against Shigella sonnei C-10 by gradient plate test. Type of series: functional.
Series [8] has as its system Plasmodium berghei. As to the kind of experiment: Antimalarial activity against Plasmodium berghei infected in mouse assessed as increase in mean survival days of host at 160 mg/kg, sc administered 72 hrs after infection relative to control. Type of series: functional. The note with it: route subcutaneous.
Series [9] has as its system Plasmodium gallinaceum. Description: Antimalarial activity against sporozoite-induced Plasmodium gallinaceum infected in white leghorn chicken assessed as disease cure from parasite infection at 30 mg/kg, sc administered 72 hrs after infection. Type of series: functional, organism-based. Further details: dose 30 mg/kg.
Series [10] concerns Plasmodium gallinaceum. Description: Antimalarial activity against sporozoite-induced Plasmodium gallinaceum infected in white leghorn chicken assessed as increase in mean survival days of host at 30 mg/kg, sc administered 72 hrs after infection relative to control. It is filed as functional. Particulars: route subcutaneous.
In series [11] the test system is Plasmodium gallinaceum. Description: Antimalarial activity against sporozoite-induced Plasmodium gallinaceum infected in white leghorn chicken assessed as disease cure from parasite infection at 60 mg/kg, sc administered 72 hrs after infection. It is filed as functional, organism-based. Further details: dose 60 mg/kg.
Series [12] relates to Plasmodium gallinaceum. As to the kind of experiment: Antimalarial activity against sporozoite-induced Plasmodium gallinaceum infected in white leghorn chicken assessed as disease cure from parasite infection at 240 mg/kg, sc administered 72 hrs after infection. It is filed as functional, organism-based. Further details: dose 240 mg/kg.
For series [13], the system named is Plasmodium berghei. Description: Antimalarial activity against Plasmodium berghei infected in mouse assessed as disease cure from parasite infection at 160 mg/kg, sc administered 72 hrs after infection. Type of series: functional, organism-based. Details: dose 160 mg/kg.
The subject of series [14] is Plasmodium gallinaceum. As to the kind of experiment: Antimalarial activity against sporozoite-induced Plasmodium gallinaceum infected in white leghorn chicken assessed as disease cure from parasite infection at 120 mg/kg, sc administered 72 hrs after infection. It is filed as functional, organism-based. Details: dose 120 mg/kg.
The test system of series [15] is Plasmodium gallinaceum. As to the kind of experiment: Antimalarial activity against sporozoite-induced Plasmodium gallinaceum infected in white leghorn chicken assessed as increase in mean survival days of host at 15 mg/kg, sc administered 72 hrs after infection relative to control. Type of series: functional. The note with it: route subcutaneous.
The subject of series [16] is Pseudomonas aeruginosa. As to the kind of experiment: Antibacterial activity against Pseudomonas aeruginosa 28 by gradient plate test. Type of series: functional.
The subject of series [17] is Plasmodium berghei. As to the kind of experiment: Antimalarial activity against Plasmodium berghei infected in mouse assessed as increase in mean survival days of host at 80 mg/kg, sc administered 72 hrs after infection relative to control. Type of series: functional. The note with it: route subcutaneous.
Series [18] has as its system Plasmodium berghei. As to the kind of experiment: Antimalarial activity against Plasmodium berghei infected in mouse assessed as disease cure from parasite infection at 80 mg/kg, sc administered 72 hrs after infection. It is filed as functional, organism-based. Details: dose 80 mg/kg.
Series [19] has as its system Plasmodium berghei. As to the kind of experiment: Antimalarial activity against Plasmodium berghei infected in mouse assessed as increase in mean survival days of host at 2.5 mg/kg, sc administered 72 hrs after infection relative to control. Type of series: functional. Particulars: route subcutaneous.
In series [20] the test system is Plasmodium berghei. As to the kind of experiment: Antimalarial activity against Plasmodium berghei infected in mouse assessed as disease cure from parasite infection at 640 mg/kg, sc administered 72 hrs after infection. Details: dose 640 mg/kg. Type of series: functional, organism-based.
The subject of series [21] is Plasmodium gallinaceum. As to the kind of experiment: Antimalarial activity against sporozoite-induced Plasmodium gallinaceum infected in white leghorn chicken assessed as disease cure from parasite infection at 480 mg/kg, sc administered 72 hrs after infection. It is filed as functional, organism-based. Details: dose 480 mg/kg.
The test system of series [22] is Plasmodium berghei. Description: Antimalarial activity against Plasmodium berghei infected in mouse assessed as increase in mean survival days of host at 5 mg/kg, sc administered 72 hrs after infection relative to control. It is filed as functional. The note with it: route subcutaneous.
Series [23] relates to Plasmodium berghei. Description: Antimalarial activity against Plasmodium berghei infected in mouse assessed as disease cure from parasite infection at 320 mg/kg, sc administered 72 hrs after infection. Type of series: functional, organism-based. Details: dose 320 mg/kg.
The test system of series [24] is Plasmodium berghei. As to the kind of experiment: Antimalarial activity against Plasmodium berghei infected in mouse assessed as increase in mean survival days of host at 20 mg/kg, sc administered 72 hrs after infection relative to control. Particulars: route subcutaneous. Type of series: functional.
In series [25] the test system is Plasmodium berghei. Description: Antimalarial activity against Plasmodium berghei infected in mouse assessed as increase in mean survival days of host at 40 mg/kg, sc administered 72 hrs after infection relative to control. Particulars: route subcutaneous. Type of series: functional.
Series [26] concerns Plasmodium berghei. Description: Antimalarial activity against Plasmodium berghei infected in mouse assessed as disease cure from parasite infection at 40 mg/kg, sc administered 72 hrs after infection. Further details: dose 40 mg/kg. It is filed as functional, organism-based.
The subject of series [27] is Mycobacterium tuberculosis. Description: Antibacterial activity against Mycobacterium tuberculosis H37Ra by gradient plate test. It is filed as functional.
Series [28] concerns Mus musculus. As to the kind of experiment: Toxicity in Plasmodium berghei infected mouse assessed as mortality at 640 mg/kg, sc administered 72 hrs after infection measured after 2 to 5 days. Type of series: organism-based. Further details: dose 640 mg/kg, route subcutaneous. Particulars: in vivo.
In series [29] the test system is Plasmodium gallinaceum. Description: Antimalarial activity against trophozoite-induced Plasmodium gallinaceum infected in white leghorn chicken assessed as increase in mean survival days of host at 160 mg/kg, sc administered 72 hrs after infection relative to control. It is filed as functional. Particulars: route subcutaneous.
In series [30] the test system is Plasmodium gallinaceum. Description: Antimalarial activity against trophozoite-induced Plasmodium gallinaceum infected in white leghorn chicken assessed as disease cure from parasite infection at 320 mg/kg, sc administered 72 hrs after infection. Further details: dose 320 mg/kg. Type of series: functional, organism-based.
Series [31] relates to Plasmodium gallinaceum. As to the kind of experiment: Antimalarial activity against trophozoite-induced Plasmodium gallinaceum infected in white leghorn chicken assessed as increase in mean survival days of host at 10 mg/kg, sc administered 72 hrs after infection relative to control. It is filed as functional. Particulars: route subcutaneous.
The subject of series [32] is Plasmodium gallinaceum. Description: Antimalarial activity against trophozoite-induced Plasmodium gallinaceum infected in white leghorn chicken assessed as increase in mean survival days of host at 20 mg/kg, sc administered 72 hrs after infection relative to control. Type of series: functional. The note with it: route subcutaneous.
Series [33] deals with Plasmodium gallinaceum. Description: Antimalarial activity against trophozoite-induced Plasmodium gallinaceum infected in white leghorn chicken assessed as increase in mean survival days of host at 80 mg/kg, sc administered 72 hrs after infection relative to control. Type of series: functional. Particulars: route subcutaneous.
Series [34] has as its system Plasmodium berghei. As to the kind of experiment: Antimalarial activity against trophozoite-induced Plasmodium berghei infected in mouse assessed as daily dose required to suppression of 90% parasite infection administered with diet for 6 days. Type of series: functional.
Series [35] deals with Gallus gallus. Description: Toxicity in sporozoite-induced Plasmodium gallinaceum infected white leghorn chicken assessed as mortality at 480 mg/kg, sc administered 72 hrs after infection measured up to 6 days. Type of series: organism-based. Further details: dose 480 mg/kg, route subcutaneous. Particulars: in vivo.
The test system of series [36] is Plasmodium berghei. Description: Ratio of quinine hydrochloride SD90 to compound SD90 for trophozoite-induced Plasmodium berghei infected in mouse assessed as daily dose required to suppression of 90% parasite infection administered with diet for 6 days. Type of series: functional.
Series [37] deals with Plasmodium gallinaceum. As to the kind of experiment: Antimalarial activity against trophozoite-induced Plasmodium gallinaceum infected in white leghorn chicken assessed as increase in mean survival days of host at 320 mg/kg, sc administered 72 hrs after infection relative to control. Type of series: functional. Particulars: route subcutaneous.
Series [38] deals with Plasmodium gallinaceum. Description: Antimalarial activity against trophozoite-induced Plasmodium gallinaceum infected in white leghorn chicken assessed as increase in mean survival days of host at 40 mg/kg, sc administered 72 hrs after infection relative to control. Particulars: route subcutaneous. It is filed as functional.

The term MIC denotes the smallest concentration in the dilution series that meets the test's criterion for growth inhibition. A higher MIC goes with a need for much substance. For the molecule `Nc1nc(N)c2cc(Sc3c(F)c(F)cc(F)c3F)ccc2n1`, the MIC is < 0.25 µg/mL in series [1]; < 0.25 µg/mL in series [2]; 2 µg/mL (≈ 5.88 µM) in [3]; < 0.25 µg/mL in series [4]; 15 µg/mL (≈ 44.1 µM) in series [7]; > 25 µg/mL in [16]. Moreover, the outcome in series [5], in series [9], in series [11], in series [12], in [13] and in series [14] was Active. Also, the result in [18], in series [20], in series [21] and in [23] was Active. For the same molecule, the MST in series [6] is 0.5 days; in series [8], 14.9 days; in [10] it was 2.7 days; in series [15], 1.7 days; in [17], 8.9 days; in series [19], 0.3 days. Also, the MST in [22] was determined as 0.3 days; in series [24] it was 2.7 days; in series [25], 6.1 days.

Consider `Nc1nc(N)c2c(Cl)c(Sc3ccc(F)cc3)ccc2n1`, for which the MIC in series [1] was < 0.25 µg/mL; in series [2], < 0.25 µg/mL; in series [3], < 0.25 µg/mL; in series [4] it was < 0.25 µg/mL; in series [7] it was < 0.25 µg/mL; in series [16] it was > 25 µg/mL. Moreover, the MIC in series [27] amounted to 5 µg/mL (≈ 15.6 µM). For the same molecule, the result in [13], in series [26], in series [18], in series [20] and in series [23] was Active. The Activity entry in series [28] is “Toxic”. In addition, the values for the MST in [24] and in series [25] were 6.9 days and 15.6 days, respectively.

As to `Cc1ccc(Sc2ccc3nc(N)nc(N)c3c2)cc1`, the MST in series [29] worked out at 22.2 days; in series [31], 4.6 days; in series [6], 2.5 days; in series [32], 7.6 days; in [33] it was 15.2 days; in [17] it was 9.7 days. The MST in [37] was 20 days; in series [24], 3.9 days; in series [38] it was 10.4 days; in series [25] it was 7.1 days. The outcome in series [30], in [11], in series [12], in series [13], in series [14] and in series [18] was Active. Also, the result in series [20], in [21] and in [23] was Active. The MIC was < 0.25 µg/mL in [1]; < 0.25 µg/mL in series [2]; < 0.25 µg/mL in series [3]; < 0.25 µg/mL in [4]; 0.5 µg/mL (≈ 1.77 µM) in [7]; > 25 µg/mL in series [16]. Besides, the SD90 in series [34] is 7.2 mg/kg/day. For the same molecule, in series [35], the Activity entry is listed as “Toxic”. In series [36], the Ratio came out at 10.
